One data set has as its system Brassica napus L. Put plainly: Pre-emergence herbicidal inhibition assay, Petri dish test, BN. To be noted: for EC50: Brassica napus, 168 h, 7 days; for Relative activity ratio (BN root) / Relative activity ratio (BN stalk): relative to FOS. In kind it is in vivo. The method, then: (§1) The pre-emergence activity of the compounds against monocot Echinochloa crus-galli (EC) and dicot Brassica napus L. (BN) was evaluated using the standard Petri dish test. The compounds were dissolved in DMF, emulsified with Tween-80 and diluted with water to form stock solutions, each of which was further diluted to a gradient of 100, 50, 25, 10 and 1 mg/L for test. The test solutions were added to Petri dishes lined with a filter paper, on which 10 seeds of EC and BN were placed. After cultured in an intelligent climate chamber with a humidity of 65% at 26 °C for 7 days, the corresponding EC50 values were calculated.

In a further data set the test system is Echinochloa crus-galli. Put plainly: Pre-emergence herbicidal inhibition assay, Petri dish test, EC. Type of data set: in vivo. As to conditions: for EC50: Echinochloa crus-galli, 168 h, 7 days; for Relative activity ratio (EC root) / Relative activity ratio (EC stalk): relative to FOS. The procedure: as §1
Data set [1] has as its target recombinant E. coli DXR (EcDXR) (Escherichia coli, UniProt P45568). Description: biochemical. As to conditions: read-out: InR (%) on DXR enzyme.
In the next data set the test system is Arabidopsis thaliana. Description: Arabidopsis growth inhibition assay (24-well plates, green channel pixel value). As to conditions: Arabidopsis thaliana, 240 h; for EC50: read-out: EC50 against Arabidopsis growth; for pest or weed control at 100 µg/mL: read-out: InR (%) against Arabidopsis.

Converted amounts (≈) assume the structure as drawn. Where two headings read alike, the source gives them in different places. Bounds are passed on as bounds.

Sequence of recombinant E. coli DXR (EcDXR) (P45568 whole entry): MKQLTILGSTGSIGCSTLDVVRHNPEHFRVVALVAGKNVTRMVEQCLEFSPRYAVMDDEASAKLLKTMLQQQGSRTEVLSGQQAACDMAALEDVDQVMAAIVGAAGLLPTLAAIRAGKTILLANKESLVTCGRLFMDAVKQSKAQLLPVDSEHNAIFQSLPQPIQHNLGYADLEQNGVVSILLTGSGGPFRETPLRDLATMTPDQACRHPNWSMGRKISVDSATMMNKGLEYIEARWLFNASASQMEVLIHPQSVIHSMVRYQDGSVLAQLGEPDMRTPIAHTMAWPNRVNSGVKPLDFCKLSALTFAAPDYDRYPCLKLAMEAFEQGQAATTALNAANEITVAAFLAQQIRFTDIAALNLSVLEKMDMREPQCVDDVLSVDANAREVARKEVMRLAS

Molecule `CCc1noc(CC)c1CCP(=O)(O)O` [Compound 6f] registered a melting point above 250 °C. For the same molecule, in the data set with Brassica napus L. (root, read-out: EC50 BN Root), the 50% effective concentration (EC50) was above 100 µg/mL. Further, in the data set on Brassica napus L. (stalk, read-out: EC50 BN Stalk), the EC50 is above 100 µg/mL. Besides, the 50% effective concentration (EC50) in the data set with Echinochloa crus-galli (root, read-out: EC50 EC Root) was above 100 µg/mL. Further, in the data set with Echinochloa crus-galli (stalk, read-out: EC50 EC Stalk), the EC50 was 41.7 µg/mL (≈ 179 µM). Besides, the inhibition at 100 µM in data set [1] worked out at 11.7%. In the data set with Arabidopsis thaliana, the EC50 was above 100 µg/mL and the pest or weed control at 100 µg/mL stood at 13.4%.
With `Cc1n[nH]c(O)c1CC(P(=O)(O)O)P(=O)(O)O` [Compound 12a], the melting point is above 250 °C. Moreover, in the data set on Brassica napus L. (root, read-out: EC50 BN Root), the EC50 worked out at 51.3 µg/mL (≈ 179 µM). Moreover, the EC50 in the data set on Brassica napus L. (stalk, read-out: EC50 BN Stalk) came to 87.1 µg/mL (≈ 304 µM). Further, the EC50 with Echinochloa crus-galli (root, read-out: EC50 EC Root) is above 100 µg/mL. Also, the EC50 with Echinochloa crus-galli (stalk, read-out: EC50 EC Stalk) is 47.7 µg/mL (≈ 167 µM). Moreover, the inhibition at 100 µM in data set [1] was determined as 13.7%. In addition, in the data set on Arabidopsis thaliana, the concentration giving a half-maximal response (EC50) was above 100 µg/mL and the pest or weed control at 100 µg/mL stood at 47.2%.
Molecule `CCc1n[nH]c(O)c1CC(P(=O)(O)O)P(=O)(O)O` [Compound 12b] returned a melting point above 250 °C. Moreover, in the data set with Brassica napus L. (root, read-out: EC50 BN Root), the half-maximal effective concentration (EC50) was 61.6 µg/mL (≈ 205 µM). Also, the EC50 in the data set with Brassica napus L. (stalk, read-out: EC50 BN Stalk) worked out at 24.5 µg/mL (≈ 81.6 µM). Moreover, the EC50 in the data set with Echinochloa crus-galli (root, read-out: EC50 EC Root) was determined as 77.5 µg/mL (≈ 258 µM). The EC50 with Echinochloa crus-galli (stalk, read-out: EC50 EC Stalk) is 55.3 µg/mL (≈ 184 µM). Further, the inhibition at 100 µM in data set [1] is 21.9%. Further, in the data set on Arabidopsis thaliana, the half-maximal effective concentration (EC50) was above 100 µg/mL and the pest or weed control at 100 µg/mL came to 29.6%.
On to `CCCc1n[nH]c(O)c1CC(P(=O)(O)O)P(=O)(O)O` [Compound 12c], for which the melting point is above 250 °C. In addition, the concentration giving a half-maximal response (EC50) in the data set with Brassica napus L. (root, read-out: EC50 BN Root) came to 55.1 µg/mL (≈ 175 µM). The EC50 with Brassica napus L. (stalk, read-out: EC50 BN Stalk) was determined as 33.1 µg/mL (≈ 105 µM). The half-maximal effective concentration (EC50) in the data set on Echinochloa crus-galli (root, read-out: EC50 EC Root) is 68.3 µg/mL (≈ 217 µM). Also, in the data set on Echinochloa crus-galli (stalk, read-out: EC50 EC Stalk), the EC50 was determined as 36.4 µg/mL (≈ 116 µM). In data set [1], the inhibition at 100 µM came to 32.3%. Also, in the data set on Arabidopsis thaliana, the concentration giving a half-maximal response (EC50) was above 100 µg/mL and the pest or weed control at 100 µg/mL amounted to 49.7%.
Turning to `CC(C)c1n[nH]c(O)c1CC(P(=O)(O)O)P(=O)(O)O` [Compound 12d], the melting point is above 250 °C. In addition, in the data set on Brassica napus L. (root, read-out: EC50 BN Root), the EC50 was 21.2 µg/mL (≈ 67.5 µM). Besides, the 50% effective concentration (EC50) with Brassica napus L. (stalk, read-out: EC50 BN Stalk) turned out to be 41.5 µg/mL (≈ 132 µM). For the same molecule, the EC50 with Echinochloa crus-galli (root, read-out: EC50 EC Root) was above 100 µg/mL. Further, the EC50 in the data set with Echinochloa crus-galli (stalk, read-out: EC50 EC Stalk) turned out to be 39.1 µg/mL (≈ 124 µM). For the same molecule, the inhibition at 100 µM in data set [1] came out at 12.4%. Also, in the data set with Arabidopsis thaliana, the half-maximal effective concentration (EC50) was above 100 µg/mL and the pest or weed control at 100 µg/mL stood at 44.8%.
As to `O=P(O)(O)C(Cc1c(C(F)(F)F)n[nH]c1O)P(=O)(O)O` [Compound 12e], the melting point fell in the range of 225 to 226 °C. In the data set on Brassica napus L. (root, read-out: EC50 BN Root), the EC50 was above 100 µg/mL. For the same molecule, the concentration giving a half-maximal response (EC50) with Brassica napus L. (stalk, read-out: EC50 BN Stalk) came to 45.7 µg/mL (≈ 134 µM). In the data set with Echinochloa crus-galli (root, read-out: EC50 EC Root), the EC50 amounted to 46.8 µg/mL (≈ 138 µM). Further, the EC50 in the data set on Echinochloa crus-galli (stalk, read-out: EC50 EC Stalk) was above 100 µg/mL. In addition, the inhibition at 100 µM in data set [1] was determined as 22.8%. In addition, in the data set with Arabidopsis thaliana, the EC50 was above 100 µg/mL and the pest or weed control at 100 µg/mL worked out at 31.5%.
Regarding `O=P(O)(O)C(Cc1c(C(F)F)n[nH]c1O)P(=O)(O)O` [Compound 12f], the melting point is 228 to 229 °C. Moreover, the EC50 in the data set with Brassica napus L. (root, read-out: EC50 BN Root) amounted to 15.6 µg/mL (≈ 48.4 µM). Moreover, the EC50 in the data set with Brassica napus L. (stalk, read-out: EC50 BN Stalk) was 22.3 µg/mL (≈ 69.2 µM). In addition, the EC50 in the data set with Echinochloa crus-galli (root, read-out: EC50 EC Root) was found to be 36.5 µg/mL (≈ 113 µM). Moreover, the EC50 in the data set on Echinochloa crus-galli (stalk, read-out: EC50 EC Stalk) turned out to be 12.6 µg/mL (≈ 39.1 µM). For the same molecule, in data set [1], the inhibition at 100 µM was 6.1%. Also, in the data set on Arabidopsis thaliana, the half-maximal effective concentration (EC50) was above 100 µg/mL and the pest or weed control at 100 µg/mL is 47%.
The molecule `Cc1n[nH]c(C)c1CC(P(=O)(O)O)P(=O)(O)O` [Compound 12g] yielded a melting point above 250 °C. In the data set on Brassica napus L. (root, read-out: EC50 BN Root), the EC50 was above 100 µg/mL. Besides, the half-maximal effective concentration (EC50) in the data set with Brassica napus L. (stalk, read-out: EC50 BN Stalk) is 32.9 µg/mL (≈ 116 µM). Besides, the EC50 with Echinochloa crus-galli (root, read-out: EC50 EC Root) was found to be 38.8 µg/mL (≈ 137 µM). In addition, the EC50 with Echinochloa crus-galli (stalk, read-out: EC50 EC Stalk) was 31.4 µg/mL (≈ 111 µM). In addition, the inhibition at 100 µM in data set [1] turned out to be 11.6%. Moreover, in the data set on Arabidopsis thaliana, the EC50 was above 100 µg/mL and the pest or weed control at 100 µg/mL was 40.4%.
For `CCc1n[nH]c(CC)c1CC(P(=O)(O)O)P(=O)(O)O` [Compound 12h], the melting point was above 250 °C. Moreover, the EC50 with Brassica napus L. (root, read-out: EC50 BN Root) worked out at 40.1 µg/mL (≈ 128 µM). Also, the EC50 with Brassica napus L. (stalk, read-out: EC50 BN Stalk) came to 22.3 µg/mL (≈ 71.4 µM). Further, the EC50 with Echinochloa crus-galli (root, read-out: EC50 EC Root) amounted to 44.2 µg/mL (≈ 142 µM). For the same molecule, the EC50 in the data set on Echinochloa crus-galli (stalk, read-out: EC50 EC Stalk) came to 31.1 µg/mL (≈ 99.6 µM). Besides, the inhibition at 100 µM in data set [1] was determined as 2.3%. In addition, in the data set on Arabidopsis thaliana, the EC50 is above 100 µg/mL and the pest or weed control at 100 µg/mL was determined as 41.2%.
For the molecule `CCc1onc(O)c1CC(P(=O)(O)O)P(=O)(O)O` [Compound 13b], the EC50 turned out to be 38.8 µg/mL (≈ 129 µM) with Brassica napus L. (root, read-out: EC50 BN Root); 20.2 µg/mL (≈ 67.1 µM) in the data set with Brassica napus L. (stalk, read-out: EC50 BN Stalk); 29.9 µg/mL (≈ 99.3 µM) in the data set with Echinochloa crus-galli (root, read-out: EC50 EC Root); 35.3 µg/mL (≈ 117 µM) in the data set with Echinochloa crus-galli (stalk, read-out: EC50 EC Stalk); 37.7 ± 2.8 µg/mL (≈ 125 µM) in the data set on Arabidopsis thaliana. Also, the “Relative activity ratio (BN root)” value in the data set on Brassica napus L. was determined as 0.9 fold. The “Relative activity ratio (BN stalk)” value in the data set on Brassica napus L. stood at 1.6 fold. Further, the “Relative activity ratio (EC root)” value in the data set with Echinochloa crus-galli is on record as 1.3 fold. Besides, the “Relative activity ratio (EC stalk)” value with Echinochloa crus-galli is listed as 1.1 fold. In addition, the inhibition at 100 µM in data set [1] amounted to 27.4%. The pest or weed control at 100 µg/mL in the data set with Arabidopsis thaliana turned out to be 100%.
Consider `CCCc1onc(O)c1CC(P(=O)(O)O)P(=O)(O)O` [Compound 13c], for which the EC50 came to 27.7 µg/mL (≈ 87.9 µM) in the data set with Brassica napus L. (root, read-out: EC50 BN Root); 46.9 µg/mL (≈ 149 µM) in the data set with Brassica napus L. (stalk, read-out: EC50 BN Stalk); 43.9 µg/mL (≈ 139 µM) with Echinochloa crus-galli (root, read-out: EC50 EC Root); 45.8 µg/mL (≈ 145 µM) in the data set on Echinochloa crus-galli (stalk, read-out: EC50 EC Stalk); 48.4 ± 5.3 µg/mL (≈ 154 µM) in the data set with Arabidopsis thaliana. Also, the “Relative activity ratio (BN root)” value with Brassica napus L. worked out at 1.3 fold. Also, in the data set with Brassica napus L., the “Relative activity ratio (BN stalk)” value was found to be 0.7 fold. For the same molecule, the “Relative activity ratio (EC root)” value with Echinochloa crus-galli is 0.9 fold. Also, in the data set with Echinochloa crus-galli, the “Relative activity ratio (EC stalk)” value is listed as 0.8 fold. The inhibition at 100 µM in data set [1] is 28.4%. The pest or weed control at 100 µg/mL in the data set with Arabidopsis thaliana is 100%.

Broadly, the EC50 is the midpoint of the concentration-response curve. By melting point is commonly meant the temperature of the solid-liquid transition.

For the origin of these results see publication PMC10673511, “Design, Synthesis and Bioactivity Evaluation of Heterocycle-Containing Mono- and Bisphosphonic Acid Compounds” (Molecules, 2023).
